System: Escherichia coli K12
Assay: Digital same-sample filtration AST at four exposure durations (Example 8)
Assay type: cell-based
Conditions: for Both (number of wells) / Empty (number of wells) / Extracellular only (number of wells) / Intracellular only (number of wells) / Intact (most likely number of cells) / Killed (most likely number of cells): Treated 1.0 μg ETP/mL; for Both (number of wells) / Empty (number of wells) / Extracellular only (number of wells) / Intracellular only (number of wells): 12 partitions, qPCR; for Intact (most likely number of cells) / Killed (most likely number of cells): assuming one cell per non-empty sample
Protocol: The inoculum was small enough that no detectable difference in the sample's optical density at 600 mm (OD600) was detectable by a spectrophotometer with a sensitivity of 0.01 absorbance units. After an incubation at 37° C., the media became turbid with an OD600 of 0.34 absorbance units after 3.08 hours of incubation.
In this experiment, the number and volume of sample partitions was restricted, for logistical reasons, to 96 partitions 10 μL in volume, specifically the wells of a 96-well plate. A goal was chosen of having a >98% chance of ending up with at least 48 empty partitions. When all partitions are the same volume, the following formula relates the expected number of empty partitions, the partition volume, and the density of cells.
N is the total number of partitions, n is the number of empty partitions, V is the partition volume, D is the density of cells, and t is a threshold probability chosen by the practitioner. In order to achieve digital sample partitioning with the available 96-well plate, each 10 μL sample of the specimen needed to contain between 0.02 and 2.5 cells on average. In this experiment, a density of 1 cells per sample were targeted. Due to systematic bias in the conversion of OD600 to cell density, the actual density achieved in the exposure was closer to 0.281 cells per sample. The batch culture specimen itself was diluted to a density of 28.1 CFU/mL (0.0281 cells/μL) to achieve the target cells/sample density.
To begin the AST protocol, the contrived clinical specimen (containing 28.1 CFU/mL) was physically partitioned into the 96 samples by transferring 10 μL of the specimen, in 96 separate transfers (actually […] with a multichannel pipette), to each well of a separable 96-well microtiter plate. Then, the entire plate was sealed with a RNase/DNase-free plastic, adhesive sealing membrane.
Each well of the 96-well microtiter plate contained 15 μL of Mueller-Hinton Broth (MHB) growth media, placed there before the specimen was partitioned. Half of the wells (48) contained 0 μg/mL of dissolved ETP antibiotic and served as reference condition antibiotic exposures. The other half of the wells contained 1.67 μg/mL of ETP (for a final concentration of 1.0 μg/mL) and served as 48 treated condition antibiotic exposures. The separable plate comprised 4 detachable sections bearing 3 columns and 8 rows of wells.
The treated and reference conditions were arranged so that each of the four groups of wells contained 12 treated and 12 reference conditions. In total, there would eventually be eight experimental conditions: 4 exposure durations of 0, 30, 60, and 120 min, each with 12 treated and 12 reference conditions.
Immediately after the specimen had been partitioned, one section (24 wells in total) of the separable 96-well plate was detached to serve as the 0-minute set of conditions. The rest of the separable 96-well plate was incubated at 37° C. Then, the following step was repeated for each time point of 0, 30, 60, and 120 minutes.
The entire volume of each antibiotic exposure was transferred to a Millipore® 96-well sterile polystyrene MultiScreenHTS® filter plate (Millipore-Sigma MSGVS2210). Each well of the filter plate contained a hydrophilic polyvinylidene fluoride (PVDF) filter membrane with a 0.22 μm pore size. A 96-well polypropylene microtiter plate was affixed to the bottom of the filter plate. The filter plate was promptly centrifuged at 2200 relative centrifugal force for 3 minutes to speed the passage of the antibiotic exposure sample through the filter and into 96-well microtiter plate. The collected fluid was called the “filtrate.” […]

C[C@@H](O)[C@H]1C(=O)N2C(C(=O)O)=C(S[C@@H]3CN[C@H](C(=O)Nc4cccc(C(=O)O)c4)C3)[C@H](C)[C@H]12 [ETP, ertapenem]
susceptibility call (1.0 μg/mL ETP, overall p-value vs 0.005): susceptible | Both (number of wells) (exposure duration 0 min): 0 | Empty (number of wells) (exposure duration 0 min): 12 | Extracellular only (number of wells) (exposure duration 0 min): 0 | Intracellular only (number of wells) (exposure duration 0 min): 0 | Intact (most likely number of cells) (exposure duration 0 min): 0 | Killed (most likely number of cells) (exposure duration 0 min): 0 | Both (number of wells) (exposure duration 30 min): 0 | Empty (number of wells) (exposure duration 30 min): 7 | Extracellular only (number of wells) (exposure duration 30 min): 4 | Intracellular only (number of wells) (exposure duration 30 min): 1 | Intact (most likely number of cells) (exposure duration 30 min): 1 | Killed (most likely number of cells) (exposure duration 30 min): 4 | Both (number of wells) (exposure duration 60 min): 0 | Empty (number of wells) (exposure duration 60 min): 8 | Extracellular only (number of wells) (exposure duration 60 min): 4 | Intracellular only (number of wells) (exposure duration 60 min): 0 | Intact (most likely number of cells) (exposure duration 60 min): 0 | Killed (most likely number of cells) (exposure duration 60 min): 4 | Both (number of wells) (exposure duration 120 min): 0 | Empty (number of wells) (exposure duration 120 min): 8 | Extracellular only (number of wells) (exposure duration 120 min): 4 | Intracellular only (number of wells) (exposure duration 120 min): 0 | Intact (most likely number of cells) (exposure duration 120 min): 0 | Killed (most likely number of cells) (exposure duration 120 min): 4

From patent publication US20220282304A1, “SAME-SAMPLE ANTIBIOTIC SUSCEPTIBILITY TEST AND RELATED COMPOSITIONS, METHODS AND SYSTEMS” (CALIFORNIA INSTITUTE OF TECHNOLOGY, priority 2021, published 2022)
